Where a name gives a salt, the structure may show the parent alone.
molecular target: 5HT3a receptor (Homo sapiens (Human), UniProt P46098); assay: Inhibition of Ca flux activity of 5HT3 in vitro assay; format: cell-based; settings: 5HT3a expressed in HEK-293T cells; 5HT 216 nM; approximate values
Protocol: The 5HT3 antagonist activity of the compounds of the invention was determined by measuring the ability of the compounds to inhibit the calcium flux activity of […] receptor expressed in HEK-293T cells. HEK-293T cells were transfected with the 5HT3a expression construct using Xtreme Gene 9 (Roche) in 150 mm tissue culture treated plates and incubated for 24 hours at 37° C. Cells were then split and plated at a density of 60K cells/well in poly-lysine coated, black 96-well plates with clear bottoms (BD BioSciences) and incubated overnight at 37° C. Growth media was removed and cells loaded with 200 uL calcium indicator dye in HBSS containing 20 mM HEPES (Calcium 5 Assay kit, Molecular Devices) and incubated at 37° C. for 1 hour. While cells were incubating, the 10× antagonist and agonist/antagonist addition plates were made. For 10× antagonist plate: half log serial dilutions (final concentrations range from 10^−7 through 10^−10 with the bottom well a negative, no ligand control) were made from test compounds in DMSO at a 1000× concentration and then diluted to 10× in HBSS/20 mM HEPES. For addition plate: 5HT was diluted to 100× in HBSS/20 mM HEPES (final concentration in the assay-216 nM) and 15 uL was added to each well of the addition plate, 15 uL of 10× compound was also added to the addition plate, and finally 120 uL of HBSS/20 mM HEPES (for a total of 150 uL). Cells were then removed from the incubator and equilibrated to room temperature for 10 minutes, then 22.5 uL of 10× test compounds were added in triplicate to the plates and incubated at room temperature for 10 minutes (Tropisetron was used as a positive control in every assay). Test plate and addition plate were loaded into the FlexStation III (Molecular Devices), and using the fluidics, 22.5 uL compound additions were made (at t=˜17 seconds), and fluorescence was measured for 90 seconds, reading every 2.2 seconds. Data sets were analyzed as max minus min using Software Max Pro (Molecular Devices). IC50 curves were generated using non-linear regression in GraphPad Prism.

Sequence of 5HT3a receptor (P46098 24-478): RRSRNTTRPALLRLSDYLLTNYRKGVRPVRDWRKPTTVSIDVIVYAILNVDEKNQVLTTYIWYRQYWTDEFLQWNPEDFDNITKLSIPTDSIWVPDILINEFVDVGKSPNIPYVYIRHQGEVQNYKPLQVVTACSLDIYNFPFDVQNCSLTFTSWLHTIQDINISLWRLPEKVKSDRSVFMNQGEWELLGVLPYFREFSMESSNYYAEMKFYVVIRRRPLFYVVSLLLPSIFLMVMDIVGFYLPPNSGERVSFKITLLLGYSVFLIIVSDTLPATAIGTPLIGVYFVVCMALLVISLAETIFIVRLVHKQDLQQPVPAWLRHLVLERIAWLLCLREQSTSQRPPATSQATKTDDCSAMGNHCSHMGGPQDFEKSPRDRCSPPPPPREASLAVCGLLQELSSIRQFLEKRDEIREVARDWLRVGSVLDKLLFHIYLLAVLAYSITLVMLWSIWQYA

Compound | IC50
O=C(OC1CC2COCC(C1)N2)c1cn(-c2ccns2)c2ccccc12 [Compound 155, (1R,5S,7s)-3-oxa-9-aza-bicyclo[3.3.1]nonan-7-yl 1-(iso-thiazol-5-yl)-1H-indole-3-carboxylate, 2,2,2-trifluoroacetic acid salt] | 1.26 nM
CS(=O)(=O)n1cc(C(=O)O[C@H]2C[C@H]3COC[C@@H](C2)N3)c2cc(F)ccc21 [Compound 19, (1R,5S,7S)-3-oxa-9-aza-bicyclo[3.3.1]nonan-7-yl 5-fluoro-1-(methylsulfonyl)-1H-indole-3-carboxylate, 2,2,2-trifluoroacetate] | 7.72 nM
CN1[C@@H]2COC[C@H]1C[C@@H](OC(=O)c1cn(-c3cncs3)c3ccccc13)C2 [Compound 183, (1R,5S,7S)-9-methyl-3-oxa-9-azabicyclo[3.3.1]nonan-7-yl 1-(thiazol-5-yl)-1H-indole-3-carboxylate] | 1.27 nM
CN1[C@@H]2COC[C@H]1CC(OC(=O)c1cn(-c3ccsn3)c3ccccc13)C2 (stereo partly drawn) [Compound 182, (1R,5S,7S)-9-methyl-3-oxa-9-azabicyclo[3.3.1]nonan-7-yl 1-(isothiazol-3-yl)-1H-indole-3-carboxylate] | 1.62 nM
O=C(OC1CC2COCC(C1)N2)c1cn(-c2ccsn2)c2ccccc12 [Compound 145, (1R,5S,7s)-3-oxa-9-aza-bicyclo[3.3.1]nonan-7-yl 1-(iso-thiazol-3-yl)-1H-indole-3-carboxylate, 2,2,2-trifluoroacetic acid salt] | 2.71 nM
CN1[C@@H]2CC[C@H]1CC(OC(=O)c1nn(CC(F)(F)F)c3ccccc13)C2 (stereo partly drawn) [Compound 17, (1R,3R,5S)-8-methyl-8-aza-bicyclo[3.2.1]octan-3-yl 1-(2,2,2-trifluoroethyl)-1H-indazole-3-carboxylate, 2,2,2-trifluoroacetate] | 4.39 nM
O=C(OC1C[C@H]2COC[C@@H](C1)N2CCF)c1cn(CC(F)F)c2ccc(F)cc12 (stereo partly drawn) [Compound 33, (1R,5S,7S)-9-(2-fluoroethyl)-3-oxa-9-azabicyclo[3.3.1] nonan-7-yl 1-(2,2-difluoroethyl)-5-fluoro-1H-indole-3-carboxylate, 2,2,2-trifluoroacetate] | 14.4 nM
CN1[C@@H]2COC[C@H]1C[C@@H](OC(=O)c1cn(CC(F)(F)F)c3ccc(F)cc13)C2 [Compound 32, (1R,5S,7S)-9-methyl-3-oxa-9-azabicyclo[3.3.1]nonan-7-yl 5-fluoro-1-(2,2,2-trifluoroethyl)-1H-indole-3-carboxylate, 2,2,2-trifluoroacetate] | 1.38 nM
CN1[C@@H]2CCC[C@H]1CC(OC(=O)c1c(Cl)n(CCF)c3ccccc13)C2 (stereo partly drawn) [Compound 30, (1R,3R,5S)-9-methyl-9-aza-bicyclo[3.3.1]nonan-3-yl 2-chloro-1-(2-fluoroethyl)-1H-indole-3-carboxylate, 2,2,2-trifluoroacetate] | 0.2 nM
CN1[C@@H]2CC[C@H]1CC(OC(=O)c1cn(S(C)(=O)=O)c3ccccc13)C2 (stereo partly drawn) [Compound 26, (1R,3R,5S)-8-methyl-8-aza-bicyclo[3.2.1]octan-3-yl 1-(methylsulfonyl)-1H-indole-3-carboxylate, 2,2,2-trifluoro-acetate] | 0.54 nM
CN1[C@@H]2CC[C@H]1C[C@H](OC(=O)c1c3n(c4ccccc14)CCO3)C2 [Compound 28, (1R,3R,5S)-8-methyl-8-aza-bicyclo[3.2.1]octan-3-yl 2,3-dihydrooxazolo[3.2-a] indole-9-carboxylate, 2,2,2-trifluoroacetate] | 1.08 nM
CN1[C@@H]2CC[C@H]1CC(OC(=O)c1cn(CC(F)(F)F)c3ccc(F)cc13)C2 (stereo partly drawn) [Compound 1, (1R,3R,5S)-8-methyl-8-aza-bicyclo[3.2.1]octan-3-yl 5-fluoro-1-(2,2,2-trifluoro-ethyl)-1H-indole-3-carboxylate; 2,2,2-trifluoroacetate] | 2.13 nM
O=C(OC1C[C@H]2COC[C@@H](C1)N2)c1cn(-c2ncccn2)c2ccccc12 (stereo partly drawn) [Compound 25, (1R,5S,7S)-3-oxa-9-aza-bicyclo[3.3.1]nonan-7-yl 1-(pyrimidin-2-yl)-1H-indole-3-carboxylate, 2,2,2-trifluoro-acetate] | 3.88 nM
CN1[C@@H]2CCC[C@H]1CC(OC(=O)c1nn(S(C)(=O)=O)c3ccccc13)C2 (stereo partly drawn) [Compound 4, (1R,3R,5S)-9-methyl-9-aza-bicyclo[3.3.1]nonan-3-yl 1-(methylsulfonyl)-1H-indazole-3-carboxylate, 2,2,2-trifluoroacetate] | 1.4 nM
N#CCn1cc(C(=O)OC2C[C@H]3COC[C@@H](C2)N3)c2ccccc21 (stereo partly drawn) [Compound 187, (1R,5S,7S)-3-oxa-9-aza-bicyclo[3.3.1]nonan-7-yl 1-(cyanomethyl)-1H-indole-3-carboxylate] | 1.18 nM
CN1[C@@H]2CCC[C@H]1CC(OC(=O)c1cn(S(C)(=O)=O)c3ccc(F)cc13)C2 (stereo partly drawn) [Compound 34, (1R,3R,5S)-9-methyl-9-aza-bicyclo[3.3.1]nonan-3-yl 5-fluoro-1-(methylsulfonyl)-1H-indole-3-carboxylate, 2,2,2-trifluoroacetate] | 0.74 nM
O=C(OC1CC2CCC(C1)N2)c1cn(CC(F)(F)F)c2ccccc12 [Compound 14, (1R,3R,5S)-8-azabicyclo[3.2.1] octan-3-yl 1-(2,2,2-trifluoroethyl)-1H-indole-3-carboxylate, 2,2,2-trifluoroacetate] | 3.71 nM
CN1[C@@H]2COC[C@H]1CC(OC(=O)c1cn(-c3cnccn3)c3ccccc13)C2 (stereo partly drawn) [Compound 181, (1R,5S,7S)-9-methyl-3-oxa-9-azabicyclo[3.3.1]nonan-7-yl 1-(pyrazin-2-yl)-1H-indole-3-carboxylate] | 1.1 nM
CN1[C@@H]2COC[C@H]1CC(OC(=O)c1cn(-c3ncccn3)c3ccccc13)C2 (stereo partly drawn) [Compound 188, (1R,5S,7S)-9-methyl-3-oxa-9-azabicyclo[3.3.1]nonan-7-yl 1-(pyrimidin-2-yl)-1H-indole-3-carboxylate] | 1.75 nM
CN1[C@@H]2CC[C@H]1C[C@H](OC(=O)c1cn(CC(F)F)c3ccc(F)cc13)C2 [Compound 27, (1R,3R,5S)-8-methyl-8-aza-bicyclo[3.2.1]octan-3-yl 1-(2,2-difluoroethyl)-5-fluoro-1H-indole-3-carboxylate, 2,2,2-trifluoroacetate] | 0.89 nM
CN1[C@@H]2COC[C@H]1CC(OC(=O)c1cn(-c3cnc(F)cn3)c3ccccc13)C2 (stereo partly drawn) [Compound 184, (1R,5S,7S)-9-methyl-3-oxa-9-aza-bicyclo[3.3.1]nonan-7-yl 1-(5-fluoropyrazin-2-yl)-1H-indole-3-carboxylate] | 1.25 nM
CN1[C@@H]2COC[C@H]1CC(OC(=O)c1cn(-c3cncnc3)c3ccccc13)C2 (stereo partly drawn) [Compound 189, (1R,5S,7S)-9-methyl-3-oxa-9-azabicyclo[3.3.1]nonan-7-yl 1-(pyrimidin-5-yl)-1H-indole-3-carboxylate] | 0.46 nM
Cc1c(C(=O)OC2C[C@H]3CC[C@@H](C2)N3C)c2ccccc2n1CCF (stereo partly drawn) [Compound 15, (1R,3R,5S)-8-methyl-8-aza-bicyclo[3.2.1]octan-3-yl 1-(2-fluoroethyl)-2-methyl-1H-indole-3-carboxylate, 2,2,2-trifluoroacetate] | 0.53 nM
CN1[C@@H]2COC[C@H]1C[C@@H](OC(=O)c1cn(-c3ccc(F)nn3)c3ccccc13)C2 [Compound 137, (1R,5S,7s)-9-methyl-3-oxa-9-azabicyclo[3.3.1]nonan-7-yl 1-(6-fluoropyridazin-3-yl)-1H-indole-3-carboxylate] | 0.681 nM
CN1[C@@H]2CC[C@H]1CC(NC(=O)c1cn(S(C)(=O)=O)c3ccc(F)cc13)C2 (stereo partly drawn) [Compound 18, 5-fluoro-N-((1R,3R,5S)-8-methyl-8-azabicyclo[3.2.1]octan-3-yl)-1-(methylsulfonyl)-1H-indole-3-carboxamide, 2,2,2-trifluoroacetate] | 4.06 nM
CN1[C@@H]2CCC[C@H]1CC(OC(=O)c1nn(CCF)c3ccccc13)C2 (stereo partly drawn) [Compound 16, (1R,3R,5S)-9-methyl-9-aza-bicyclo[3.3.1]nonan-3-yl 1-(2-fluoroethyl)-1H-indazole-3-carboxylate, 2,2,2-trifluoro-acetate; 2,2,2-trifluoroacetate] | 3.25 nM
O=C(NC1CC2COCC(C1)N2)c1cn(CC(F)(F)F)c2ccc(F)cc12 [Compound 6, N-((1R,5S,7S)-3-oxa-9-aza-bicyclo[3.3.1]nonan-7-yl)-5-fluoro-1-(2,2,2-trifluoro-ethyl)-1H-indole-3-carboxamide, 2,2,2-trifluoroacetate] | 2.33 nM
CN1[C@@H]2CC[C@H]1C[C@@H](OC(=O)c1c(Cl)n(S(C)(=O)=O)c3ccccc13)C2 [Compound 13, (1R,3R,5S)-8-methyl-8-aza-bicyclo[3.2.1]octan-3-yl 2-chloro-1-(methylsulfonyl)-1H-indole-3-carboxylate, 2,2,2-trifluoroacetate] | 0.93 nM

Source: US9695195B2, “5-HT3 receptor antagonists” (Takeda Pharmaceutical Company Limited, priority 2012, dated 2017)
